Experimental data published in PubChem BioAssay (NCI).
Where “and” joins values, the source holds several entries; their conditions need not be identical. Equal entries are not always repeated.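 Assay format: 96-well plates, 48-hour exposure. GI50 = concentration required for 50% inhibition of growth. The concentration for full growth arrest is given as TGI.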 *1 amine or outer side, *2 acyl side, *3 side chain or, on linkers, in order; H or OH if unused. Where a SMILES comes first, the peptide text is derived from it. Bridges are numbered along the chain shown (N, C = ends). [ ]: non-standard residue; d: D form. The star is where a group is joined. Phe(3-Me) = Cc1cccc(C[C@H](N)C(=O)O)c1; NH(4-Cl-2-F-phenyl) = Fc1cc(Cl)ccc1N*; Pro(4R-Me) = C[C@H]1CN[C@H](C(=O)O)C1; Propanoyl(3-NMe2) = CN(C)CCC(=O)*; Hyp = O=C(O)[C@@H]1C[C@@H](O)CN1; aThr = C[C@H](O)[C@H](N)C(=O)O; Pip = O=C(O)[C@@H]1CCCCN1; CO = O=C([*:1])[*:2]

How the values were obtained:
Assay in all cases: NCI tumour cell line growth inhibition, 48 h
[1] = test system: A498 renal
[2] = test system: ACHN renal
[3] = test system: CCRF-CEM leukemia
[4] = test system: HCT-116 colon
[5] = test system: HS 578T breast
[6] = test system: LOX IMVI melanoma
[7] = test system: MOLT-4 leukemia
[8] = test system: NCI/ADR-RES ovarian
[9] = test system: PC-3 prostate
[10] = test system: UACC-62 melanoma

Compound	GI50 [1]	TGI [1]	GI50 [2] [nM]	TGI [2] [µM]	GI50 [3]	TGI [3] [µM]	GI50 [4] [nM]	TGI [4] [µM]	GI50 [5]	TGI [5] [µM]	GI50 [6] [nM]	TGI [6] [µM]	GI50 [7]	TGI [7] [µM]	GI50 [8]	TGI [8] [µM]	GI50 [9]	TGI [9] [µM]	GI50 [10] [µM]	TGI [10] [µM]
CCc1ccc(Nc2cc(C)nc3nc(C)nn23)cc1	533 nM	78.7 µM	34800	> 100	48100 nM	> 100	80100	> 100	39300 nM	> 100	46000	> 100	33300 nM	> 100	49.4 µM	> 100	53300 nM	> 100	37.7	> 100
C/C(=N\NC(=O)c1ccncc1)c1ccc(O)cc1O	8610 nM	> 100 µM	4480	> 100	2080 nM	> 100	3160	> 100	43300 nM	> 100	3460	> 100	4140 nM	> 100	3.42 µM	> 100	10900 nM	> 100	3.3	> 100
Cc1cccc(C[C@H](NC(=O)Nc2ccc(Cl)cc2F)C(=O)N[C@@H]2C(=O)N3C[C@H](OC(=O)CCN(C)C)C[C@H]3C(=O)N3CCCC[C@H]3C(=O)N[C@@H](C)C(=O)N3C[C@H](C)C[C@H]3C(=O)O[C@H]2C)c1 ({NH(4-Cl-2-F-phenyl)-CO}-[Phe(3-Me)][aThr][Hyp](Propanoyl(3-NMe2))[Pip]A[Pro(4R-Me)]; ester 2-C)	430 nM	3.29 µM	1750	3.49	470 nM	7.81	408	1.62	474 nM	3.82	683	2.2	811 nM	4.65	10.8 µM	28.5	368 nM	1.76	0.569	2.06
CN1CCCCC1CCN1c2ccccc2Sc2ccc(S(C)=O)cc21 (configuration not stated)	–	> 100 µM	–	> 100	–	> 100	–	> 100	–	> 100	–	> 100	–	> 100	–	> 100	–	> 100	–	> 100
COc1cc2c3c(c4c5ccccc5[nH]c4c2c(OC)c1OC)C(=O)N(CCN1CCCCC1)C3=O	1350 nM	4.87 µM	400	1.6	855 nM	> 100	351	1.46	1840 nM	4.59	1050	2.45	536 nM	9.23	0.892 µM	3.19	1220 nM	2.64	3.88	9.12
CCN(CC)CC(O)C1CCC(c2ccccc2)CC1 (configuration not stated)	–	42.9 µM	–	57.5	–	82.6	–	> 100	–	> 100	–	42.1	–	> 100	–	> 100	–	> 100	–	30.9
Cn1c(=S)sc2nc3ccccc3n2c1=S	–	46.9 µM	–	24	–	43.7	–	17.9	–	95.9	–	26.2	–	38.7	–	44.8	–	92.3	–	32.8
CSc1nc2c(c(=O)[nH]1)C(c1ccc(Cl)cc1)C1=C(N2)/C(=C/c2ccc(Cl)cc2)CNC1 (configuration not stated)	2680 nM	11.3 µM	1810	3.86	2550 nM	8.99	1720	3.55	3600 nM	84.1	1900	3.81	2450 nM	11	3.29 µM	16.5	1990 nM	5.1	2.02	4.5
COc1ccc(CC2C3=C(CCCC3)CCN2C)cc1 (configuration not stated)	–	> 100 µM	–	> 100	–	> 100	–	> 100	–	> 100	–	> 100	–	> 100	–	> 100	–	> 100	–	> 100
NC[C@@](O)(c1ccc(Cl)cc1)c1ccc(-c2cn[nH]c2)cc1	438 nM and 313 nM	> 23.5 µM and 7.45 µM	1640	4.93	2410 nM and 824 nM	–	1440	3.19	471 nM and 173 nM	–	1590	3.04	2140 nM and 1980 nM	> 100	3.48 µM and 2.2 µM	–	3890 nM and 2190 nM	> 100	3.2	> 10
CNC1C(OC2C(OC3C(O)C(O)C(O)C(O)C3O)OC(C)C2(O)CO)OC(CO)C(O)C1O (configuration not stated) (tested in a mixture with another compound)	–	> 100 µM	–	> 100	–	> 100	–	> 100	–	> 100	–	> 100	–	> 100	–	> 100	–	> 100	–	> 100
